Experimental findings from patent US11857578B2, “Extract and dermatological composition comprising same, for treating sensitive skin” (PIERRE FABRE DERMO-COSMETIQUE, priority 2018, dated 2024) are described below.

Holding throughout (format): cell-based
The subject of one assay is IL-1β. The assay can be described thus: IL-1β release by human epidermal keratinocytes activated by substance P (ELISA). How it is done: (§1) The purpose of this study is to evaluate the modulatory properties of the bacterial extract according to the invention in skin inflammation. To that end, an in vitro experimental approach based on the measurement of production and release of tumor necrosis factor-alpha (TNF-α) and interleukin-1 beta (IL-1β) by human epidermal keratinocytes, activated by substance P, is proposed as an in vitro model of cutaneous neurogenic inflammation. The study is carried out on normal human epidermal keratinocytes; these cells are obtained from newborn foreskin. These cells are cultured in a serum-free medium using conventional laboratory procedures. The determination of markers of cutaneous neurogenic inflammation is carried out on these keratinocytes cultured in a medium in the absence (control condition) or in the presence of the compounds to be tested (bacterial extract according to the invention and reference product), and optionally exposed to substance P. The keratinocytes are treated 3 hours before the stress induced by substance P and during the following 24 hours. Levels of proinflammatory cytokines (TNF-α and IL-1β) are quantified 24 h after the induction of inflammatory stress by the addition of substance P (0.5 μM). […] TNF-α and IL-1β productions are measured in the incubation media and quantified by the enzyme-linked immunosorbent assay (ELISA).
(An ELISA detects its analyte on a solid surface through an enzyme-linked reagent.)

A further assay deals with TNF-α. Description: TNF-α release by human epidermal keratinocytes activated by substance P (ELISA). How it is done:
as §1

A further assay concerns HBD2. Description: RT-qPCR gene expression of innate immunity marker HBD2 in normal human epidermal keratinocytes. As to conditions: 1.5 mM, 48 h incubation, three donors. The procedure: (§2) The purpose of this study is to evaluate the effects of the bacterial extract according to the invention on the gene expression of normal human epidermal keratinocytes by an RT-PCR technique on two genes related to innate immunity.
(§3) The study is carried out on normal human epidermal keratinocytes from three donors. These cells are used at their third passage. These cells are cultured in a standard medium supplemented with epidermal growth factor (EGF), pituitary extract (PE) and gentamycin, using conventional laboratory procedures.
(§4) The bacterial extract according to the invention is tested at three concentrations: 0.4, 2 and 10 μg/ml (μg/ml protein).
(§5) At the same time, calcium chloride is tested at 1.5 mM as reference product.
(§6) The keratinocytes are seeded in 24-well plates (50,000 cells per well) and cultured for 24 hours in a culture medium. […]
(§7) The expression of markers is analyzed by the RT-qPCR method on total RNA extracted from the cells under each condition. […] The quantity and quality of RNA are evaluated by capillary electrophoresis. cDNA is synthesized by reverse transcription of total RNA in the presence of oligo(dT) and Transcriptor Reverse Transcriptase. […]
(§8) Fluorescence incorporation into amplified DNA is continuously measured during PCR cycles. […]
(§9) The parameter RQ (relative quantification) is defined as the relative expression/100. […]
(In qPCR the cycle at which signal appears reflects the starting amount.)

A further assay has as its system S100A7. The assay can be described thus: RT-qPCR gene expression of innate immunity marker S100A7 in normal human epidermal keratinocytes. The following applies: 1.5 mM, 48 h incubation, three donors. How it is done: as §2, §3, §4, §5, §6, §7, §8, §9
Setting [1] is: 1 μM, keratinocytes treated 3 h before and 24 h during substance P (0.5 μM).

`COc1ccccc1CN[C@H]1C2CCN(CC2)[C@H]1C(c1ccccc1)c1ccccc1` [NK-1R inh, CP96345]: the IL-1β mean in the assay on IL-1β (setting [1]) worked out at 132.5 pg/mL. The inhibition at 1 µM with IL-1β (Homo sapiens, Keratinocyte, versus Cont SP(+), substance P 0.5 μM, 24 h, read-out: IL-1β % Inh) was 91%; with TNF-α (Homo sapiens, Keratinocyte, versus Cont SP(+), substance P 0.5 μM, 24 h, read-out: TNF-α % Inh) it was 90%. Also, the TNF-α mean in the assay with TNF-α (setting [1]) was found to be 4.6 pg/mL.

For the molecule `[Ca+2].[Cl-].[Cl-]` [Calcium chloride, calcium chloride], the “HBD2 gene expression, Mean (multiplicative factor, RQ vs control)” value is recorded as 5.8 in the assay on HBD2 and “strong expression” in the assay with HBD2 (listed as calcium chloride). Moreover, the “S100A7 gene expression, Mean (multiplicative factor, RQ vs control)” value is 4.1 with S100A7 and “strong expression” in the assay with S100A7 (listed as calcium chloride).
